Assays:
[1] = biological target: T1, σ1-receptor (Cavia porcellus, UniProt Q60492); test: Sigma-1 receptor binding assay, [3H](+)-pentazocine, brain membranes; settings: guinea pig brain membranes; for inhibition at 0.1 µM: compound 10^−7 M; for inhibition at 0.1 µM / inhibition at 0.01 µM: [3H](+)-pentazocine 0.5 nM; for inhibition at 0.01 µM: compound 10^−8 M; for Ki: σ1, [3H](+)-pentazocine
T1 construct: guinea pig brains were homogenized; from tissue; host or cells: guinea pig brain membranes
T1 sequence (Q60492 whole entry): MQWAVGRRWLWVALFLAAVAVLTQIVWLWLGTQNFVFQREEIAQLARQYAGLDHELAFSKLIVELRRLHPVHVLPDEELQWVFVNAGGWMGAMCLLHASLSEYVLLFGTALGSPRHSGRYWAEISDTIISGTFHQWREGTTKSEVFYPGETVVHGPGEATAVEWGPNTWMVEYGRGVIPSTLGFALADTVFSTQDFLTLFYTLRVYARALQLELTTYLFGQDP
Method: Brain membrane preparation and binding assays for the σ1-receptor were performed as described (DeHaven-Hudkins et al., 1992) with some modifications. In brief, guinea pig brains were homogenized in 10 vols. (w/v) of Tris-HCl 50 mM 0.32 M sucrose, pH 7.4, with a Kinematica Polytron PT 3000 at 15000 r.p.m. for 30 s. The homogenate was centrifuged at 1000 g for 10 min at 4° C. and the supernatants collected and centrifuged again at 48000 g for 15 min at 4° C. The pellet was resuspended in 10 volumes of Tris-HCl buffer (50 mM, pH 7.4), incubated at 37° C. for 30 min, and centrifuged at 48000 g for 20 min at 4° C. Following this, the pellet was resuspended in fresh Tris-HCl buffer (50 mM, pH 7.4) and stored on ice until use.
Each assay tube contained 10 μL of [^3H](+)-pentazocine (final concentration of 0.5 nM), 900 μL of the tissue suspension to a final assay volume of 1 mL and a final tissue concentration of approximately 30 mg tissue net weight/mL. Non-specific binding was defined by addition of a final concentration of 1 μM haloperidol. All tubes were incubated at 37° C. for 150 min before termination of the reaction by rapid filtration over Schleicher & Schuell GF 3362 glass fibre filters [previously soaked in a solution of 0.5% polyethylenimine for at least 1 h]. Filters were then washed with four times with 4 mL of cold Tris-HCl buffer (50 mM, pH 7.4). Following addition of scintillation cocktail, the samples were allowed to equilibrate overnight. The amount of bound radioactivity was determined by liquid scintillation spectrometry using a Wallac Winspectral 1414 liquid scintillation counter. Protein concentrations were determined by the method of Lowry et al. (1951).

[2] = test system: capsaicin-induced allodynia; test: von Frey filaments in a model of capsaicin-induced allodynia; format: in vivo; settings: percent analgesia compared to control, mice, mechanical stimulus (von Frey) after capsaicin
Method: In-Vivo-Experiments Using von Frey Filaments in a Model of […]-Induced Allodynia: This model is described in detail in the experimental part of WO 2006/010587 A1, examples 1 and 2, the description being included here by reference. Capsaicin is thereby injected into experimental animals to produce acute pain followed by allodynia. Briefly after habituation mice were first treated with the test-compound (or not in controls). Then capsaicin (1% DMSO) is injected into their paw resulting in developing pain in the effected paw. The effected paw is then treated with a mechanical stimulus and the latency time before the paw is withdrawn is measured.

Row | melting point | inhibition at 0.1 µM [1] | inhibition at 0.01 µM [1] | Ki [1] | Compound | Analgesia (16 mg/kg), i.p. % [2]
1 | 88 to 94 °C | 91.8% | 68.8% |  | CN(CC(=O)Nc1ccn(-c2ccc(Cl)c(Cl)c2)n1)C1CCCCC1 [Example 11, 2-(cyclohexyl (methyl)amino)-N-(1-(3,4-dichlorophenyl)-1H-pyrazol-3-yl)acetamide] | 
2 | 168 to 172 °C | 88.3% | 53.6% | 7.1 nM | Clc1ccc(-n2ccc(NCCN3CCCCC3)n2)cc1Cl.O=C(O)C(=O)O [Example 6, 1-(3,4-Dichlorophenyl)-N-(2-(piperidin-1-yl)ethyl)-1H-pyrazol-3-amine oxalate] | 42%
3 | 157 to 159 °C |  |  |  | Clc1ccc(-n2ccc(NCCN3CCCCCC3)n2)cc1Cl.O=C(O)C(=O)O | 
4 | 114 to 116 °C |  |  |  | CN(CCNc1ccn(-c2ccc(Cl)c(Cl)c2)n1)C1CCCCC1.O=C(O)C(=O)O | 
5 | 69 to 74 °C | 77.3% | 51.7% | 6.4 nM | CCN(CC)CC(=O)Nc1ccn(-c2ccc(Cl)c(Cl)c2)n1 [Example 4, N-(1-(3,4-dichlorophenyl)-1H-pyrazol-3-yl)-2-(diethylamino)acetamide] | 47%
6 | 206 to 209 °C |  |  |  | CN(CC(=O)Nc1ccn(-c2ccc(Cl)c(Cl)c2)n1)Cc1ccccc1.O=C(O)C(=O)O | 
7 | 213 to 217 °C |  |  |  | O=C(CN1CCOCC1)Nc1ccn(-c2ccc3ccccc3c2)n1.O=C(O)C(=O)O | 
8 | 213 to 217 °C |  |  |  | CN1CCN(CC(=O)Nc2ccn(-c3ccc(Cl)c(Cl)c3)n2)CC1.O=C(O)C(=O)O | 
9 | 230 to 232 °C |  |  |  | CN1CCN(CCNc2ccn(-c3ccc(Cl)c(Cl)c3)n2)CC1.O=C(O)C(=O)O | 

More lines, now with the values behind:

Row | Compound | melting point | inhibition at 0.1 µM [1] | inhibition at 0.01 µM [1] | Ki [1] | Analgesia (16 mg/kg), i.p. % [2]
10 | Clc1ccc(-n2ccc(NCCN3CCN(C4CCCCC4)CC3)n2)cc1Cl [Example 14, N-(2-(4-cyclohexylpiperazin-1-yl)ethyl)-1-(3,4-dichlorophenyl)-1H-pyrazol-3-amine] | 115 to 119 °C | 100% | 72.1% |  | 
11 | Clc1ccc(-n2ccc(NCCN3CCOCC3)n2)cc1Cl [Example 3, 1-(3,4-dichlorophenyl)-N-(2-morpholinoethyl)-1H-pyrazol-3-amine] |  | 78.9% | 54.3% |  | 
12 | O=C(CN1CCOCC1)Nc1ccn(-c2ccc(Cl)c(Cl)c2)n1 [Example 2, N-(1-(3,4-dichlorophenyl)-1H-pyrazol-3-yl)-2-morpholinoacetamide] |  | 37.8% | 25.9% |  | 
13 | CCN(CC)CCSc1cc(C)n(-c2ccc(Cl)c(Cl)c2)n1.O=C(O)C(=O)O [Example 70, 2-(1-(3,4-dichlorophe-nyl)-5-methyl-1H-pyrazol-3-ylthio)-N,N-diethylethanamine oxalate] | 184 to 188 °C | 93.1% | 34.6% |  | 
14 | Cc1cc(SCCN2CCOCC2)nn1-c1ccc(Cl)c(Cl)c1.O=C(O)C(=O)O [Example 68, 4-(2-(1-(3,4-dichlorophenyl)-5-methyl-1H-pyrazol-3-ylthio)ethyl) morpholine oxalate] |  | 93.5% | 91.2% | 23 ± 0.6 nM | 21%
15 | O=C(CN1CCCCC1)Nc1ccn(C2CCCCC2)n1.O=C(O)C(=O)O | 177 to 181 °C |  |  |  | 
16 | O=C(CN1CCOCC1)Nc1ccn(-c2cccc(Cl)c2)n1.O=C(O)C(=O)O | 219 to 220 °C |  |  |  | 
17 | O=C(CN1CCCC1)Nc1ccn(C2CCCCC2)n1.O=C(O)C(=O)O | 127 to 130 °C |  |  |  | 
18 | O=C(CN1CCCCCC1)Nc1ccn(-c2ccc(Cl)c(Cl)c2)n1 [Example 28, 2-(azepan-1-yl)-N-(1-(3,4-dichlorophenyl)-1H-pyrazol-3-yl)acetamide] | 99 to 102 °C |  |  |  | 
19 | Cc1cc(SCCN2CCCC2)nn1-c1ccc(Cl)c(Cl)c1.O=C(O)C(=O)O | 144 to 151 °C |  |  |  | 
20 | CCN(CC)CCNc1ccn(-c2ccc(Cl)c(Cl)c2)n1 [Example 1, 1-(3,4-dichlorophenyl)-N-(2-(diethylamino)ethyl)-1H-pyrazol-3-amine] |  | 66.6% | 1.8% | 46.4 nM | 
21 | O=C(CN1CCCCC1)Nc1ccn(-c2ccc(Cl)c(Cl)c2)n1 [Example 5, N-[1-(3,4-dichlorophenyl)-1H-pyrazol-3-yl)-2-(piperidin-1-yl)acetamide] | 78 to 82 °C | 68.2% | 46.1% |  | 
22 | Clc1cccc(-n2ccc(NCCN3CCOCC3)n2)c1.O=C(O)C(=O)O | 144 to 146 °C |  |  |  | 
23 | Cc1cc(SCCN2CCCCC2)nn1-c1ccc(Cl)c(Cl)c1.O=C(O)C(=O)O | 162 to 164 °C |  |  |  | 
24 | O=C(O)C(=O)O.c1ccc2cc(-n3ccc(NCCN4CCOCC4)n3)ccc2c1 | 148 to 153 °C |  |  |  | 
